Measured values: patent publication US11702404B2, “GLP-1R modulating compounds” (priority 2019, dated 2023)

What was measured:
[1] = Microsomal stability, human liver microsomes (predicted hepatic clearance); details: predicted from in vitro microsomal stability data
GLP-1R = GLP-1R (Homo sapiens, UniProt P43220); assay: GLP-1R activation: cAMP increase in CHO cells stably expressing GLP-1R; type: cell-based; details: cAMP increase, CHO cells stably expressing GLP-1R, 10 point dose response, 30 minutes incubation; read-out: EC50
Sequence of GLP-1R (P43220 24-463): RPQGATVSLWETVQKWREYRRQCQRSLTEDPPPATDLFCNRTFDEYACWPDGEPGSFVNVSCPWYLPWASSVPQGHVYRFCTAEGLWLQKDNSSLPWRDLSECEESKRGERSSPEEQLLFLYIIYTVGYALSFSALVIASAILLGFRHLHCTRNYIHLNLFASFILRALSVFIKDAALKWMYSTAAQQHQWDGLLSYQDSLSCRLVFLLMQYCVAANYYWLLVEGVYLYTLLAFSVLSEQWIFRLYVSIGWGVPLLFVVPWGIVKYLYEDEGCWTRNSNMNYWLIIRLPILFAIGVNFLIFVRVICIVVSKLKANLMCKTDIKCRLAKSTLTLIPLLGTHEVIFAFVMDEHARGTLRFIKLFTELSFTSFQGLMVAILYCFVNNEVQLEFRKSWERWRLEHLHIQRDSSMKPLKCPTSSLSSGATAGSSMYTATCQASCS

Row | Compound | Predicted Hepatic Clearance (Pred. Cl.) [1] | EC50 (GLP-1R)
1 | N#Cc1ccc(COc2cccc(-c3ccn(Cc4nc5ccc(C(=O)O)cc5n4CC4(n5ccnn5)CC4)c(=O)c3)n2)c(F)c1 [Example 421, 1-((1-(1H-1,2,3-triazol-1-yl)cyclopropyl)methyl)-2-((6-((4-cyano-2-fluorobenzyl)oxy)-2′-oxo-[2,4′-bipyridin]-1′(2′H)-yl)methyl)-1H-benzo[d]imidazole-6-carboxylic acid] | <1.83 mL/min/kg | 327 nM
2 | N#CCC1(Cn2c(Cn3ccc(-c4cccc(OCc5ccc(C#N)cc5F)n4)cc3=O)nc3ccc(C(=O)O)cc32)CC1 [Example 422, 2-((6-((4-cyano-2-fluorobenzyl)oxy)-2′-oxo-[2,4′-bipyridin]-1′(2′H)-yl)methyl)-1-((1-(cyanomethyl)cyclopropyl)methyl)-1H-benzo[d]imidazole-6-carboxylic acid] | 2.67 mL/min/kg | 0.87 nM
3 | N#Cc1ccc(COc2cccc(-c3ccn(Cc4nc5ccc(C(=O)O)cc5n4C[C@@H]4CCO4)c(=O)c3)n2)c(F)c1 [Example 423, (S)-2-((6-((4-cyano-2-fluorobenzyl)oxy)-2′-oxo-[2,4′-bipyridin]-1′(2′H)-yl)methyl)-1-(oxetan-2-ylmethyl)-1H-benzo[d]imidazole-6-carboxylic acid] | <1.83 mL/min/kg | 4.12 nM
4 | N#Cc1ccc(COc2cccc(-c3ccn(Cc4nc5ccc(C(=O)O)cc5n4CC4(CF)CC4)c(=O)c3)n2)c(F)c1 [Example 424, 2-((6-((4-cyano-2-fluorobenzyl)oxy)-2′-oxo-[2,4′-bipyridin]-1′(2′H)-yl)methyl)-1-((1-(fluoromethyl)cyclopropyl)methyl)-1H-benzo[d]imidazole-6-carboxylic acid] | 2.33 mL/min/kg | 15.7 nM
5 | COc1cc(C#N)ccc1COc1nccc(-c2cc(F)c(Cc3nc4ccc(C(=O)O)cc4n3CC3(CF)CC3)cc2F)n1 [Example 430, 2-(4-(2-((4-cyano-2-methoxybenzyl)oxy)pyrimidin-4-yl)-2,5-difluorobenzyl)-1-((1-(fluoromethyl)cyclopropyl)methyl)-1H-benzo[d]imidazole-6-carboxylic acid] | <1.83 mL/min/kg | 0.67 nM
6 | N#Cc1ccc(COc2nccc(-c3cc(F)c(Cc4nc5ccc(C(=O)O)cc5n4CC4(CF)CC4)cc3F)n2)c(F)c1 [Example 431, 2-(4-(2-((4-cyano-2-fluorobenzyl)oxy)pyrimidin-4-yl)-2,5-difluorobenzyl)-1-((1-(fluoromethyl)cyclopropyl)methyl)-1H-benzo[d]imidazole-6-carboxylic acid] | 3.83 mL/min/kg | 0.73 nM
7 | O=C(O)c1ccc2nc(Cc3cc(F)c(-c4cccc(OCc5ccc(Cl)cc5F)n4)cc3F)n(CC3(CF)CC3)c2c1 [Example 432, 2-(4-(6-((4-chloro-2-fluorobenzyl)oxy)pyridin-2-yl)-2,5-difluorobenzyl)-1-((1-(fluoromethyl)cyclopropyl)methyl)-1H-benzo[d]imidazole-6-carboxylic acid] | <1.83 mL/min/kg | 2.01 nM
8 | O=C(O)c1ccc2nc(Cc3cc(F)c(-c4ccnc(OCc5ccc(Cl)cc5F)n4)cc3F)n(CC3(CF)CC3)c2c1 [Example 433, 2-(4-(2-((4-chloro-2-fluorobenzyl)oxy)pyrimidin-4-yl)-2,5-difluorobenzyl)-1-((1-(fluoromethyl)cyclopropyl)methyl)-1H-benzo[d]imidazole-6-carboxylic acid] | <1.83 mL/min/kg | 0.64 nM

Next, values leading:

Row | Predicted Hepatic Clearance (Pred. Cl.) [1] | EC50 (GLP-1R) | Compound
9 | 6.7 mL/min/kg | 4.29 nM | COCCn1c(Cc2ccc(-c3cccc(OCc4ccc(C#N)cc4F)n3)cc2CO)nc2ccc(C(=O)O)cc21 [Example 425, 2-(4-(6-((4-cyano-2-fluorobenzyl)oxy)pyiridn-2-yl)-2-(hydroxymethyl)benzyl)-1-(2-methoxyethyl)-1H-benzo[d]imidazole-6-carboxylic acid]
10 | 4.6 mL/min/kg | 2.34 nM | COCCn1c(Cc2cc(F)c(-c3cccc(OCc4ccc(C#N)cc4F)n3)cc2F)nc2ccc(C(=O)O)cc21 [Example 426, 2-(4-(6-((4-cyano-2-fluorobenzyl)oxy)pyridin-2-yl)-2,5-difluorobenzyl)-1-(2-methoxyethyl)-1H-benzo[d]imidazole-6-carboxylic acid]
11 | <1.83 mL/min/kg | 0.06 nM | COc1cc(C#N)ccc1COc1cccc(-c2cc(F)c(Cc3nc4ccc(C(=O)O)cc4n3CC3(CC#N)CC3)cc2F)n1 [Example 427, 2-(4-(6-((4-cyano-2-methoxybenzyl)oxy)pyridin-2-yl)-2,5-difluorobenzyl)-1-((1-(cyanomethyl)cyclopropyl)methyl)-1H-benzo[d]imidazole-6-carboxylic acid]
12 | 8.92 mL/min/kg | 0.13 nM | N#CCC1(Cn2c(Cc3cc(F)c(-c4cccc(OCc5ccc(C#N)cc5F)n4)cc3F)nc3ccc(C(=O)O)cc32)CC1 [Example 428, 2-(4-(6-((4-cyano-2-fluorobenzyl)oxy)pyridin-2-yl)-2,5-difluorobenzyl)-1-((1-(cyanomethyl)cyclopropyl)methyl)-1H-benzo[d]imidazole-6-carboxylic acid]
13 | 3.83 mL/min/kg | 0.61 nM | N#Cc1ccc(COc2cccc(-c3cc(F)c(Cc4nc5ccc(C(=O)O)cc5n4CC4(CF)CC4)cc3F)n2)c(F)c1 [Example 429, 2-(4-(6-((4-cyano-2-fluorobenzyl)oxy)pyridin-2-yl)-2,5-difluorobenzyl)-1-((1-(fluoromethyl)cyclopropyl)methyl)-1H-benzo[d]imidazole-6-carboxylic acid]
14 | 3.17 mL/min/kg | 2.86 nM | COCCn1c(Cn2cc(F)c(-c3cccc(OCc4ccc(C#N)cc4F)n3)cc2=O)nc2ccc(C(=O)O)cc21 [Example 434]
15 | 6.17 mL/min/kg | 8.7 nM | COCCn1c(Cc2ccc(-c3cccc(OCc4c(F)cc(Cl)cc4OC)n3)cc2F)nc2ccc(C(=O)O)cc21 [Example 435, 2-(4-(6-((4-chloro-2-fluoro-6-methoxybenzyl)oxy)pyridin-2-yl)-2-fluorobenzyl)-1-(2-methoxyethyl)-1H-benzo[d]imidazole-6-carboxylic acid]
16 | <1.83 mL/min/kg | 0.44 nM | COCCn1c(Cc2cc(F)c(-c3cccc(OCc4ccc(C#N)cc4OC)n3)cc2F)nc2ccc(C(=O)O)cc21 [Example 436, 2-(4-(6-((4-cyano-2-methoxybenzyl)oxy)pyridin-2-yl)-2,5-difluorobenzyl)-1-(2-methoxyethyl)-1H-benzo[d]imidazole-6-carboxylic acid]
17 | 2.67 mL/min/kg | 69.8 nM | COCCn1c(Cn2c(C)cc(-c3cccc(OCc4ccc(C#N)cc4F)n3)cc2=O)nc2ccc(C(=O)O)cc21 [Example 437, 2-((6-((4-cyano-2-fluorobenzyl)oxy)-6′-methyl-2′-oxo-[2,4′-bipyridin]-1′(2′H)-yl)methyl)-1-(2-methoxyethyl)-1H-benzo[d]imidazole-6-carboxylic acid]
